From ChEMBL document CHEMBL4184208, “Theoretical research in structure characteristics of different inhibitors and differences of binding modes with CBP bromodomain” (Bioorg Med Chem, 2018)

Target: CREB-binding protein/Histone acetyltransferase p300 (Homo sapiens, UniProt Q09472+Q92793)
Test: Inhibition of human His-FLAG tagged CBP/EP300 (1082 to 1197 residues) using H4-TetraAc-biotin peptide as substrate after 90 mins by AlphaLISA method
Type: protein assay

For `C[C@@H]1CC(=O)Nc2ccccc2N1`, the IC50 was 14 µM.

With `C[C@@H]1CC(=O)Nc2cccc(-c3cnn(C(C)(C)C)c3)c2N1` the IC50 was 0.47 µM.
